PubChem BioAssay (NCI)
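All cell lines were grown in 96-well plates and treated with compound for 48 hours. The concentration for full growth arrest is given as TGI.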

Assays:
Test in all cases: inhibition of tumour cell growth, NCI panel, 48 h
A549 NSCLC = test system: A549 NSCLC
SK-MEL-2 melanoma = test system: SK-MEL-2 melanoma
NCI-H460 lung = test system: NCI-H460 lung
A498 renal = test system: A498 renal
MDA-MB-435 = test system: MDA-MB-435
HCT-116 colon = test system: HCT-116 colon
HCC-2998 colon = test system: HCC-2998 colon
HT29 colon = test system: HT29 colon
UACC-62 melanoma = test system: UACC-62 melanoma
RXF 393 renal = test system: RXF 393 renal
SF-539 CNS = test system: SF-539 CNS
UACC-257 melanoma = test system: UACC-257 melanoma
LOX IMVI melanoma = test system: LOX IMVI melanoma
OVCAR-5 ovarian = test system: OVCAR-5 ovarian
COLO 205 colon = test system: COLO 205 colon
DU-145 prostate = test system: DU-145 prostate
NCI-H23 lung = test system: NCI-H23 lung
OVCAR-3 ovarian = test system: OVCAR-3 ovarian
OVCAR-8 ovarian = test system: OVCAR-8 ovarian
CAKI-1 renal = test system: CAKI-1 renal
IGROV1 ovarian = test system: IGROV1 ovarian
NCI-H522 lung = test system: NCI-H522 lung
RPMI-8226 leukemia = test system: RPMI-8226 leukemia
HCT-15 colon = test system: HCT-15 colon
M14 melanoma = test system: M14 melanoma
SW-620 colon = test system: SW-620 colon
SF-295 CNS = test system: SF-295 CNS
ACHN renal = test system: ACHN renal
EKVX NSCLC = test system: EKVX NSCLC
U251 CNS = test system: U251 CNS
NCI/ADR-RES ovarian = test system: NCI/ADR-RES ovarian
MALME-3M melanoma = test system: MALME-3M melanoma
SF-268 CNS = test system: SF-268 CNS
OVCAR-4 ovarian = test system: OVCAR-4 ovarian
NCI-H226 lung = test system: NCI-H226 lung
MDA-N = test system: MDA-N
786-0 renal = test system: 786-0 renal
UO-31 renal = test system: UO-31 renal
SN12C renal = test system: SN12C renal
PC-3 prostate = test system: PC-3 prostate
TK-10 renal = test system: TK-10 renal
BT-549 breast = test system: BT-549 breast
SK-OV-3 ovarian = test system: SK-OV-3 ovarian
CCRF-CEM leukemia = test system: CCRF-CEM leukemia
MDA-MB-231 breast = test system: MDA-MB-231 breast
KM12 colon = test system: KM12 colon
SNB-19 CNS = test system: SNB-19 CNS
SK-MEL-5 melanoma = test system: SK-MEL-5 melanoma
MCF7 breast = test system: MCF7 breast
T-47D breast = test system: T-47D breast
HL-60(TB) leukemia = test system: HL-60(TB) leukemia
SK-MEL-28 melanoma = test system: SK-MEL-28 melanoma
SNB-75 CNS = test system: SNB-75 CNS
K-562 leukemia = test system: K-562 leukemia
HS 578T breast = test system: HS 578T breast
HOP-62 NSCLC = test system: HOP-62 NSCLC

COc1cc(OC)cc(-c2nc3cc(F)ccc3s2)c1
TGI (A549 NSCLC): > 100 µM
TGI (SK-MEL-2 melanoma): 62.5 µM
TGI (NCI-H460 lung): > 100 µM
TGI (A498 renal): 62.9 µM
TGI (MDA-MB-435): > 100 µM
TGI (HCT-116 colon): 38.8 µM
TGI (HCC-2998 colon): 0.0449 µM
TGI (HT29 colon): > 100 µM
TGI (UACC-62 melanoma): 41.7 µM
TGI (RXF 393 renal): 36.6 µM
TGI (SF-539 CNS): 31.3 µM
TGI (UACC-257 melanoma): > 100 µM
TGI (LOX IMVI melanoma): > 100 µM
TGI (OVCAR-5 ovarian): > 100 µM
TGI (COLO 205 colon): > 100 µM
TGI (DU-145 prostate): > 100 µM
TGI (NCI-H23 lung): 28.4 µM
TGI (OVCAR-3 ovarian): 86.3 µM
TGI (OVCAR-8 ovarian): 97.8 µM
TGI (CAKI-1 renal): > 100 µM
TGI (IGROV1 ovarian): 43.6 µM
TGI (NCI-H522 lung): 45.5 µM
TGI (RPMI-8226 leukemia): > 100 µM
TGI (HCT-15 colon): > 100 µM
TGI (M14 melanoma): > 100 µM
TGI (SW-620 colon): > 100 µM
TGI (SF-295 CNS): 23.5 µM
TGI (ACHN renal): 29.8 µM
TGI (EKVX NSCLC): 43.5 µM
TGI (U251 CNS): 33.9 µM
TGI (NCI/ADR-RES ovarian): > 100 µM
TGI (MALME-3M melanoma): > 100 µM
TGI (SF-268 CNS): 32 µM
TGI (OVCAR-4 ovarian): > 100 µM
TGI (NCI-H226 lung): 37.8 µM
TGI (MDA-N): > 100 µM
TGI (786-0 renal): 23.5 µM
TGI (UO-31 renal): > 100 µM
TGI (SN12C renal): > 100 µM
TGI (PC-3 prostate): > 100 µM
TGI (TK-10 renal): 33.2 µM
TGI (BT-549 breast): 24.7 µM
TGI (SK-OV-3 ovarian): 31.4 µM
TGI (CCRF-CEM leukemia): > 100 µM
TGI (MDA-MB-231 breast): 40.3 µM
TGI (KM12 colon): > 100 µM
TGI (SNB-19 CNS): 49.2 µM
TGI (SK-MEL-5 melanoma): > 100 µM
TGI (MCF7 breast): > 100 µM
TGI (T-47D breast): > 100 µM

N#Cc1c(Cl)c2cc([N+](=O)[O-])ccc2n2c1nc1ccccc12
TGI (A549 NSCLC): > 100 µM
TGI (HL-60(TB) leukemia): 0.58 µM
TGI (SK-MEL-2 melanoma): 36.4 µM
TGI (NCI-H460 lung): 38.5 µM
TGI (A498 renal): > 55.6 µM
TGI (MDA-MB-435): 4.65 µM
TGI (HCT-116 colon): > 100 µM
TGI (HCC-2998 colon): 19.4 µM
TGI (HT29 colon): 18.4 µM
TGI (UACC-62 melanoma): 35.4 µM
TGI (RXF 393 renal): 5.39 µM
TGI (SF-539 CNS): 4.28 µM
TGI (SK-MEL-28 melanoma): 30 µM
TGI (UACC-257 melanoma): 56 µM
TGI (SNB-75 CNS): 24.6 µM
TGI (LOX IMVI melanoma): 3.05 µM
TGI (OVCAR-5 ovarian): 16.5 µM
TGI (K-562 leukemia): > 36.7 µM
TGI (COLO 205 colon): 4.67 µM
TGI (DU-145 prostate): 18.4 µM
TGI (NCI-H23 lung): 35.8 µM
TGI (OVCAR-3 ovarian): 29.6 µM
TGI (OVCAR-8 ovarian): 10.6 µM
TGI (CAKI-1 renal): 4.78 µM
TGI (NCI-H522 lung): 4.71 µM
TGI (RPMI-8226 leukemia): > 22.5 µM
TGI (HCT-15 colon): 2.3 µM
TGI (M14 melanoma): 4.41 µM
TGI (SF-295 CNS): 62.4 µM
TGI (ACHN renal): 13.6 µM
TGI (HS 578T breast): 18 µM
TGI (EKVX NSCLC): 34.2 µM
TGI (U251 CNS): > 100 µM
TGI (HOP-62 NSCLC): 47.4 µM
TGI (NCI/ADR-RES ovarian): 28 µM
TGI (MALME-3M melanoma): 24.1 µM
TGI (SF-268 CNS): 13.6 µM
TGI (OVCAR-4 ovarian): 3.58 µM
TGI (NCI-H226 lung): 34.3 µM
TGI (MDA-N): > 100 µM
TGI (UO-31 renal): 6.82 µM
TGI (SN12C renal): > 100 µM
TGI (PC-3 prostate): 12.5 µM
TGI (TK-10 renal): 8.95 µM
TGI (BT-549 breast): 34.4 µM
TGI (SK-OV-3 ovarian): 54.5 µM
TGI (CCRF-CEM leukemia): 4.27 µM
TGI (MDA-MB-231 breast): 0.858 µM
TGI (KM12 colon): 42.8 µM
TGI (SNB-19 CNS): 20.3 µM
TGI (SK-MEL-5 melanoma): 44.4 µM
TGI (MCF7 breast): 4.56 µM
TGI (T-47D breast): 4.8 µM
